Each block holds one compound with its values, some of them ahead of it. Activity calls are given as the source filed them. No cut-off for these calls is given here. Starred links: 1 amine or outer side, 2 acyl side, 3 side chain; linkers in the order of their positions; H or OH if unused. Non-standard residues stand in square brackets, D forms with d. Residues, ends and D or L forms follow the SMILES beside them. X2 = N/C(=N\CC(F)(F)F)NCCC[C@H](N[*:1])C(=O)[*:2]; X3 = N/C(=N\Cc1ccccc1)NCCC[C@H](N[*:1])C(=O)[*:2]; X4 = NC(NCCC[C@H](N[*:1])C(=O)[*:2])=[N+]1CCCC1; X5 = N/C(=N\C1CC1)NCCC[C@H](N[*:1])C(=O)[*:2]; X1 = N/C(=N\O)NCCC[C@H](N[*:1])C(=O)[*:2]
What was measured:
[1] = target: T1, Histone-arginine methyltransferase CARM1 (Homo sapiens) (UniProt Q86X55); test: Activity at PRMT4 (unknown origin) using [methyl-14C]AdoMet at 0.25 to 200 uM after 60 to 120 mins by tricine gel electrophoresis
T1 sequence (whole entry): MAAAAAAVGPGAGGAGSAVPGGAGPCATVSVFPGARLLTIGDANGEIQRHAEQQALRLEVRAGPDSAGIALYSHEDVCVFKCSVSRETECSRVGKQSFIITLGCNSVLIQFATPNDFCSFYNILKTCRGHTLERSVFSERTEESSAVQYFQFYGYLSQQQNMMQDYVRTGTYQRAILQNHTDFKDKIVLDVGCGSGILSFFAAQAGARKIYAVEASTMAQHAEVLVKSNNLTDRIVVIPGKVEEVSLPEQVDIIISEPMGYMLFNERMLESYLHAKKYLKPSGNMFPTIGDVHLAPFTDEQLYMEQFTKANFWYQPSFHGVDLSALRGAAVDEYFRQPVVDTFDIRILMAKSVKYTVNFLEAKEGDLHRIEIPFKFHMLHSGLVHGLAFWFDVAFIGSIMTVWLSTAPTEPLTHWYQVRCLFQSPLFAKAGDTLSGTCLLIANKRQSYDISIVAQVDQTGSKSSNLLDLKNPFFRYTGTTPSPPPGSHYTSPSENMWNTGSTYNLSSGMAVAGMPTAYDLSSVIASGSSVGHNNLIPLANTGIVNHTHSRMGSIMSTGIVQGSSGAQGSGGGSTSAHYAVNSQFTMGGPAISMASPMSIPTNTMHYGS

[2] = target: T2, Protein arginine N-methyltransferase 1 (Homo sapiens, UniProt Q99873); test: Activity at PRMT1 (unknown origin) assessed as methylation of substituted arginines by LC-MS/MS analysis
Target sequence in this assay (Q99873 whole entry, looked up): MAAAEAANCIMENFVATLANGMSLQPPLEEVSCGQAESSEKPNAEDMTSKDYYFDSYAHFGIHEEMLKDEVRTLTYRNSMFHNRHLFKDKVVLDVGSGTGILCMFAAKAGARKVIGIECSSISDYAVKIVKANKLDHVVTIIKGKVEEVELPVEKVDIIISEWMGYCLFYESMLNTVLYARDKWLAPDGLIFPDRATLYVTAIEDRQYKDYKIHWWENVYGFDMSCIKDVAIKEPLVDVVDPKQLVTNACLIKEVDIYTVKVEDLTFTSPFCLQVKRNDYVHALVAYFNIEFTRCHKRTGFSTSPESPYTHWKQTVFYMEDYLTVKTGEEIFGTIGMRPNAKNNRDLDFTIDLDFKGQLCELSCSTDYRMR

[3] = target: T3, Protein arginine N-methyltransferase 6 (Homo sapiens, UniProt Q96LA8); test: Activity at PRMT6 (unknown origin) assessed as methylation of substituted arginines by LC-MS/MS analysis
Target sequence in this assay (Q96LA8 whole entry, looked up): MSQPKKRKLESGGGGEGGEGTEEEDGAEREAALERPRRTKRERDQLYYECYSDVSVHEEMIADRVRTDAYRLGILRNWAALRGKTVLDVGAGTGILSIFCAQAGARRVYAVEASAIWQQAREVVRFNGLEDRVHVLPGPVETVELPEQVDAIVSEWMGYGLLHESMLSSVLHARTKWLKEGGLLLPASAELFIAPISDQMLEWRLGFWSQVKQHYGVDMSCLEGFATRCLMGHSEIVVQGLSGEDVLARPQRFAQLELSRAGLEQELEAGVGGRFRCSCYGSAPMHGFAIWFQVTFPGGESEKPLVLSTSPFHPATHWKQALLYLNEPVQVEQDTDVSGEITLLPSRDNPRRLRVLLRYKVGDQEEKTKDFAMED

[4] = target: T3, Protein arginine N-methyltransferase 6; test: Inhibition of PRMT6 (unknown origin) using AdoMet by Michaelis-Menten equation analysis
Target sequence in this assay (Q96LA8 whole entry): as the sequence (Q96LA8 whole entry, looked up) above

[5] = target: T2, Protein arginine N-methyltransferase 1; test: Inhibition of PRMT1 (unknown origin) using AdoMet by Michaelis-Menten equation analysis
Target sequence in this assay (Q99873 whole entry): as the sequence (Q99873 whole entry, looked up) above

[6] = target: T3, Protein arginine N-methyltransferase 6; test: Activity at PRMT6 (unknown origin) using [methyl-14C]AdoMet at 0.25 to 200 uM after 60 to 120 mins by tricine gel electrophoresis
Target sequence in this assay (Q96LA8 whole entry, looked up): as the sequence (Q96LA8 whole entry, looked up) above

[7] = target: T2, Protein arginine N-methyltransferase 1; test: Activity at PRMT1 (unknown origin) using [methyl-14C]AdoMet at 0.25 to 200 uM after 60 to 120 mins by tricine gel electrophoresis
Target sequence in this assay (Q99873 whole entry, looked up): as the sequence (Q99873 whole entry, looked up) above

[8] = target: T3, Protein arginine N-methyltransferase 6; test: Activity at 100 to 400 nM of PRMT6 (unknown origin) assessed as increase of Vmax up to 200 uM relative to control
Target sequence in this assay (Q96LA8 whole entry, looked up): as the sequence (Q96LA8 whole entry, looked up) above

[9] = target: T3, Protein arginine N-methyltransferase 6; test: Activity at 50 to 800 nM of PRMT6 (unknown origin) assessed as increase of Vmax up to 200 uM relative to control
Target sequence in this assay (Q96LA8 whole entry, looked up): as above

[10] = target: T3, Protein arginine N-methyltransferase 6; test: Activity at 50 to 800 nM of PRMT6 (unknown origin) assessed as increase of Km up to 200 uM relative to control
Target sequence in this assay (Q96LA8 whole entry, looked up): as above

[11] = target: T3, Protein arginine N-methyltransferase 6; test: Inhibition of 50 to 100 nM of PRMT6 (unknown origin) up to 200 uM
Target sequence in this assay (Q96LA8 whole entry, looked up): as above

[12] = target: T3, Protein arginine N-methyltransferase 6; test: Activity at 50 to 100 nM of PRMT6 (unknown origin) up to 200 uM
[13] = target: T2, Protein arginine N-methyltransferase 1; test: Activity at 800 nM of PRMT1 (unknown origin) at 100 to 200 uM
Target sequence in this assay (Q99873 whole entry, looked up): as the sequence (Q99873 whole entry, looked up) above

[14] = target: T2, Protein arginine N-methyltransferase 1; test: Activity at 50 to 100 nM of PRMT1 (unknown origin) up to 200 uM
Target sequence in this assay (Q99873 whole entry, looked up): as above

[15] = target: T2, Protein arginine N-methyltransferase 1; test: Inhibition of 50 nM of PRMT1 (unknown origin) up to 200 uM
Target sequence in this assay (Q99873 whole entry, looked up): as above

[16] = target: T2, Protein arginine N-methyltransferase 1; test: Inhibition of 50 to 800 nM of PRMT1 (unknown origin) up to 200 uM
Target sequence in this assay (Q99873 whole entry, looked up): as above

[17] = target: T2, Protein arginine N-methyltransferase 1; test: Activity at 50 to 800 nM of PRMT1 (unknown origin) up to 200 uM
[18] = target: T3, Protein arginine N-methyltransferase 6; test: Activity at 400 nM of PRMT6 (unknown origin) using histone H3 tail peptide
Homo sapiens [19] = species on record: Homo sapiens; test: Ratio of PRMT4 (unknown origin) to PRMT6 (unknown origin)
Homo sapiens [20] = species on record: Homo sapiens; test: Ratio of PRMT4 (unknown origin) to PRMT1 (unknown origin)
[21] = target: T3, Protein arginine N-methyltransferase 6; test: Activity at PRMT6 (unknown origin) using AdoMet assessed as formation of MMA and aDMA at 0.25 to 200 uM after 60 to 120 mins by LC-MS/MS analysis
[22] = target: T1, Histone-arginine methyltransferase CARM1 (Homo sapiens); test: Activity at PRMT4 (unknown origin) using AdoMet assessed as formation of MMA and aDMA at 0.25 to 200 uM after 60 to 120 mins by LC-MS/MS analysis
[23] = target: T2, Protein arginine N-methyltransferase 1; test: Activity at PRMT1 (unknown origin) using AdoMet assessed as formation of MMA and aDMA at 0.25 to 200 uM after 60 to 120 mins by LC-MS/MS analysis
[24] = target: T2, Protein arginine N-methyltransferase 1; test: Activity at PRMT1 (unknown origin) at 100 uM using => 5 uM of AdoMet
[25] = target: T3, Protein arginine N-methyltransferase 6; test: Activity at PRMT6 (unknown origin) at 100 uM using => 5 uM of AdoMet

Compound: N=C(N)NCCC[C@H](NC(=O)CN)C(=O)N[C@@H](CCCCN)C(=O)N[C@@H](CCCCN)C(=O)N[C@@H](CCCNC(=N)N)C(=O)N[C@@H](CCCNC(=N)N)C(=O)N[C@@H](CCC(N)=O)C(=O)N[C@@H](CCCNC(=N)N)C(=O)N[C@@H](CCCNC(=N)N)C(=O)N[C@@H](CCCNC(=N)N)C(=O)N1CCC[C@H]1C(=O)N1CCC[C@H]1C(=O)N[C@@H](CCC(N)=O)C(=O)O
Activity [1]: Active | Activity [8]: Active | fold change (FC) [9]: 9 | fold change (FC) [10]: 87 | inhibition [11]: inactive | Activity [12]: Active | Activity [13]: Active | Activity [14]: Active | inhibition [15]: inactive | inhibition [16]: inactive | Activity [17]: Active | Activity [18]: Active | Ki [4]: 35.1 µM | Ki [5]: 4.79 µM | Selectivity ratio (Homo sapiens [19]): 10 | Selectivity ratio (Homo sapiens [20]): 10 | Activity [21]: Active | Activity [22]: Active | Activity [23]: Active | Activity [6]: Active | Activity [7]: Active

Compound: N=C(N)NCCC[C@H](NC(=O)CN)C(=O)N[C@@H](CCCCN)C(=O)N[C@@H](CCCCN)C(=O)N[C@@H](CCCN/C(N)=N/O)C(=O)N[C@@H](CCCNC(=N)N)C(=O)N[C@@H](CCC(N)=O)C(=O)N[C@@H](CCCNC(=N)N)C(=O)N[C@@H](CCCNC(=N)N)C(=O)N[C@@H](CCCNC(=N)N)C(=O)N1CCC[C@H]1C(=O)N1CCC[C@H]1C(=O)N[C@@H](CCC(N)=O)C(=O)O (H-GRKK[X1]RQRRRPPQ-OH)
Activity [1]: Active | Ki [4]: 63 µM | Ki [5]: 2.68 µM | Selectivity ratio (Homo sapiens [19]): 10 | Selectivity ratio (Homo sapiens [20]): 10 | Activity [21]: Active | Activity [22]: Active | Activity [23]: Active | Activity [6]: Active | Activity [7]: Active

Compound: H-GRKKARQRRRPPQ-OH
Activity [1]: Active | Activity [2]: inactive | Activity [3]: inactive | Activity [24]: Active | Activity [25]: Active | Ki [4]: 35.9 µM | Ki [5]: 7.6 µM | Selectivity ratio (Homo sapiens [19]): 10 | Selectivity ratio (Homo sapiens [20]): 10 | Activity [21]: Active | Activity [22]: Active | Activity [23]: Active | Activity [6]: Active | Activity [7]: Active

Compound: N=C(N)NCCC[C@H](NC(=O)CN)C(=O)N[C@@H](CCCCN)C(=O)N[C@@H](CCCCN)C(=O)N[C@@H](CCCN/C(N)=N/Cc1ccccc1)C(=O)N[C@@H](CCCNC(=N)N)C(=O)N[C@@H](CCC(N)=O)C(=O)N[C@@H](CCCNC(=N)N)C(=O)N[C@@H](CCCNC(=N)N)C(=O)N[C@@H](CCCNC(=N)N)C(=O)N1CCC[C@H]1C(=O)N1CCC[C@H]1C(=O)N[C@@H](CCC(N)=O)C(=O)O (H-GRKK[X3]RQRRRPPQ-OH)
Activity [1]: Active | Activity [2]: inactive | Activity [3]: inactive | Ki [4]: 19.9 µM | Ki [5]: 2.68 µM | Activity [6]: Active | Activity [7]: Active

Second part, the compound after the results:

Activity [1]: Active | Activity [2]: inactive | Activity [3]: inactive | Ki [4]: 43.3 µM | Ki [5]: 2.98 µM | Activity [6]: Active | Activity [7]: Active
Compound: N=C(N)NCCC[C@H](NC(=O)CN)C(=O)N[C@@H](CCCCN)C(=O)N[C@@H](CCCCN)C(=O)N[C@@H](CCCN/C(N)=N/CC(F)(F)F)C(=O)N[C@@H](CCCNC(=N)N)C(=O)N[C@@H](CCC(N)=O)C(=O)N[C@@H](CCCNC(=N)N)C(=O)N[C@@H](CCCNC(=N)N)C(=O)N[C@@H](CCCNC(=N)N)C(=O)N1CCC[C@H]1C(=O)N1CCC[C@H]1C(=O)N[C@@H](CCC(N)=O)C(=O)O (H-GRKK[X2]RQRRRPPQ-OH)

Activity [1]: Active | Activity [2]: inactive | Activity [3]: inactive | Ki [4]: 77.3 µM | Ki [5]: 7.62 µM | Activity [6]: Active | Activity [7]: Active
Compound: N=C(N)NCCC[C@H](NC(=O)CN)C(=O)N[C@@H](CCCCN)C(=O)N[C@@H](CCCCN)C(=O)N[C@@H](CCCNC(N)=[N+]1CCCC1)C(=O)N[C@@H](CCCNC(=N)N)C(=O)N[C@@H](CCC(N)=O)C(=O)N[C@@H](CCCNC(=N)N)C(=O)N[C@@H](CCCNC(=N)N)C(=O)N[C@@H](CCCNC(=N)N)C(=O)N1CCC[C@H]1C(=O)N1CCC[C@H]1C(=O)N[C@@H](CCC(N)=O)C(=O)O (H-GRKK[X4]RQRRRPPQ-OH)

Activity [1]: Active | Activity [2]: inactive | Activity [3]: inactive | Ki [4]: 31.3 µM | Ki [5]: 4.29 µM | Selectivity ratio (Homo sapiens [19]): 10 | Selectivity ratio (Homo sapiens [20]): 10 | Activity [21]: Active | Activity [22]: Active | Activity [23]: Active | Activity [6]: Active | Activity [7]: Active
Compound: CC/N=C(\N)NCCC[C@H](NC(=O)[C@H](CCCCN)NC(=O)[C@H](CCCCN)NC(=O)[C@H](CCCNC(=N)N)NC(=O)CN)C(=O)N[C@@H](CCCNC(=N)N)C(=O)N[C@@H](CCC(N)=O)C(=O)N[C@@H](CCCNC(=N)N)C(=O)N[C@@H](CCCNC(=N)N)C(=O)N[C@@H](CCCNC(=N)N)C(=O)N1CCC[C@H]1C(=O)N1CCC[C@H]1C(=O)N[C@@H](CCC(N)=O)C(=O)O

Activity [1]: Active | Ki [4]: > 100 µM | Ki [5]: 2.9 µM | Activity [6]: Active | Activity [7]: Active
Compound: N=C(N)NCCC[C@H](NC(=O)CN)C(=O)N[C@@H](CCCCN)C(=O)N[C@@H](CCCCN)C(=O)N[C@@H](CCCN/C(N)=N/C1CC1)C(=O)N[C@@H](CCCNC(=N)N)C(=O)N[C@@H](CCC(N)=O)C(=O)N[C@@H](CCCNC(=N)N)C(=O)N[C@@H](CCCNC(=N)N)C(=O)N[C@@H](CCCNC(=N)N)C(=O)N1CCC[C@H]1C(=O)N1CCC[C@H]1C(=O)N[C@@H](CCC(N)=O)C(=O)O (H-GRKK[X5]RQRRRPPQ-OH)

From ChEMBL document CHEMBL3217521, “Analogues of the HIV-Tat peptide containing N-modified arginines as potent inhibitors of protein arginine N-methyltransferases” (Medchemcomm, 2012)
